Read-outs that look alike come from different tables or passages of the source. Marks after values point to notes of the source that are not given here.
Experiments:
HepG2 = conditions: HepG2; ref Majer et al., 2004; cited from earlier work
HepaRG = conditions: HepaRG; ref Le Hegarat et al., 2010; cited from earlier work
Hep3B = conditions: Hep3B; ref Majer et al., 2004; cited from earlier work
[1] = ref IARC (2018); cited from earlier work
Huh6 cells = system: Huh6 cells
Outline: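 Huh6 cells seeded in RPMI with 4% (or 10%) FBS for 12 hr, then exposed to mutagens for 4, 24 or 48 hr alongside solvent controls; cytocentrifuged, DiffQuick-stained. ≥1,000 binucleated cells scored per culture (≥2,000 per dose) for MN, NBuds, NBs; CBPI recorded. Poisson generalized linear model, p≤0.05.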

Human lymphocytes = conditions: Human lymphocytes, + S9; ref Katic et al., 2010; cited from earlier work
[2] = 10% FBS, 24 hr treatment, 50 µM
[3] = 10% FBS, 24 hr treatment, 100 µM

Cn1c(N)nc2ncc(-c3ccccc3)cc21 [PhiP, 2‐Amino‐1‐methyl‐6‐phenylimidazo[4,5‐b]pyridine]
Lowest effective concentration (LOEC) in micronucleus experiments (HepG2): 25.0 (Majer et al., 2004) μM | Lowest effective concentration (LOEC) in micronucleus experiments (HepaRG): Negative | NOEC (highest no observable effect concentration tested) (HepaRG): 320.0 µM | Lowest effective concentration (LOEC) in micronucleus experiments (Hep3B): Negative | NOEC (highest no observable effect concentration tested) (Hep3B): 300.0 µM | IARC classification [1]: Formation of guanine adducts; activation: CYP1A2 and SULT; detoxification: GSTs; IARC: Group 2B | MN effects after 24 hr (or longer) compared with 4 hr treatment (in words) (Huh6 cells; 4% FBS): more pronounced effects | BN-MN (number of micronucleated cells) (Huh6 cells; 4% FBS, 4hrs, 25 µM): 23.5 ± 0.7 ‰ | Bridges (Huh6 cells; 4% FBS, 4hrs, 25 µM): 0.5 ± 0.7 ‰ | Buds (Huh6 cells; 4% FBS, 4hrs, 25 µM): 18.0 ± 5.7 ‰ | CBPI (Huh6 cells; 4% FBS, 4hrs, 25 µM): 1.7 ± 0.1 | MN (total number of micronuclei) (Huh6 cells; 4% FBS, 4hrs, 25 µM): 23.5 ± 0.7 ‰ | BN-MN (number of micronucleated cells) (Huh6 cells; 4% FBS, 4hrs, 50 µM): 22.5 ± 2.1 ‰ | Bridges (Huh6 cells; 4% FBS, 4hrs, 50 µM): 2.0 ± 1.4 ‰ | Buds (Huh6 cells; 4% FBS, 4hrs, 50 µM): 19.0 ± 7.1 ‰ | CBPI (Huh6 cells; 4% FBS, 4hrs, 50 µM): 1.6 ± 0.2 | MN (total number of micronuclei) (Huh6 cells; 4% FBS, 4hrs, 50 µM): 22.5 ± 2.1 ‰ | BN-MN (number of micronucleated cells) (Huh6 cells; 4% FBS, 4hrs, 100 µM): 26 ± 1.4 ‰ | Bridges (Huh6 cells; 4% FBS, 4hrs, 100 µM): 1.5 ± 0.7 ‰ | Buds (Huh6 cells; 4% FBS, 4hrs, 100 µM): 23.5 ± 6.4 ‰ | CBPI (Huh6 cells; 4% FBS, 4hrs, 100 µM): 1.7 ± 0.0 | MN (total number of micronuclei) (Huh6 cells; 4% FBS, 4hrs, 100 µM): 28 ± 1.4 ‰ | BN-MN (number of micronucleated cells) (Huh6 cells; 4% FBS, 24hrs, 25 µM): 17.5 ± 2.1 ‰ | Bridges (Huh6 cells; 4% FBS, 24hrs, 25 µM): 0.0 ± 0.0 ‰ | Buds (Huh6 cells; 4% FBS, 24hrs, 25 µM): 10.5 ± 0.7 ‰ | CBPI (Huh6 cells; 4% FBS, 24hrs, 25 µM): 1.9 ± 0.1 | MN (total number of micronuclei) (Huh6 cells; 4% FBS, 24hrs, 25 µM): 17.5 ± 2.1 ‰ | BN-MN (number of micronucleated cells) (Huh6 cells; 4% FBS, 24hrs, 50 µM): 26.5 ± 0.7* ‰ | Bridges (Huh6 cells; 4% FBS, 24hrs, 50 µM): 1.5 ± 0.7 ‰ | Buds (Huh6 cells; 4% FBS, 24hrs, 50 µM): 24.5 ± 0.7* ‰ | CBPI (Huh6 cells; 4% FBS, 24hrs, 50 µM): 1.8 ± 0.0 | MN (total number of micronuclei) (Huh6 cells; 4% FBS, 24hrs, 50 µM): 30.0 ± 1.4* ‰ | BN-MN (number of micronucleated cells) (Huh6 cells; 4% FBS, 24hrs, 100 µM): 49.5 ± 2.1* ‰ | Bridges (Huh6 cells; 4% FBS, 24hrs, 100 µM): 3.0 ± 0.0 ‰ | Buds (Huh6 cells; 4% FBS, 24hrs, 100 µM): 34.0 ± 1.4* ‰ | CBPI (Huh6 cells; 4% FBS, 24hrs, 100 µM): 1.9 ± 0.0 | MN (total number of micronuclei) (Huh6 cells; 4% FBS, 24hrs, 100 µM): 49.5 ± 2.1* ‰ | BN-MN (number of micronucleated cells) (Huh6 cells; 4% FBS, 48hrs, 25 µM): 20.0 ± 1.4 ‰ | Bridges (Huh6 cells; 4% FBS, 48hrs, 25 µM): 0.0 ± 0.0 ‰ | Buds (Huh6 cells; 4% FBS, 48hrs, 25 µM): 20.5 ± 3.5 ‰ | CBPI (Huh6 cells; 4% FBS, 48hrs, 25 µM): 1.9 ± 0.1 | MN (total number of micronuclei) (Huh6 cells; 4% FBS, 48hrs, 25 µM): 20.5 ± 0.7 ‰ | BN-MN (number of micronucleated cells) (Huh6 cells; 4% FBS, 48hrs, 50 µM): 20.5 ± 3.5 ‰ | Bridges (Huh6 cells; 4% FBS, 48hrs, 50 µM): 0.5 ± 0.7 ‰ | Buds (Huh6 cells; 4% FBS, 48hrs, 50 µM): 22.0 ± 4.2 ‰ | CBPI (Huh6 cells; 4% FBS, 48hrs, 50 µM): 1.9 ± 0.0 | MN (total number of micronuclei) (Huh6 cells; 4% FBS, 48hrs, 50 µM): 21.5 ± 3.5 ‰ | BN-MN (number of micronucleated cells) (Huh6 cells; 4% FBS, 48hrs, 100 µM): 22.0 ± 1.4 ‰ | Bridges (Huh6 cells; 4% FBS, 48hrs, 100 µM): 0.5 ± 0.7 ‰ | Buds (Huh6 cells; 4% FBS, 48hrs, 100 µM): 29.5 ± 0.7* ‰ | CBPI (Huh6 cells; 4% FBS, 48hrs, 100 µM): 1.8 ± 0.2 | MN (total number of micronuclei) (Huh6 cells; 4% FBS, 48hrs, 100 µM): 24.0 ± 1.4 ‰ | BN-MN (number of micronucleated cells) (Huh6 cells; [2]): 50.0 ± 2.8* | Bridges (Huh6 cells; [2]): 1.0 ± 1.4 | Buds (Huh6 cells; [2]): 50.0 ± 1.4 | CBPI (Huh6 cells; [2]): 2.0 ± 0.1 | MN (total number of micronuclei) (Huh6 cells; [2]): 56.5 ± 2.1* | BN-MN (number of micronucleated cells) (Huh6 cells; [3]): 55.0 ± 11.3* | Bridges (Huh6 cells; [3]): 1.5 ± 0.7 | Buds (Huh6 cells; [3]): 60.0 ± 7.1* | CBPI (Huh6 cells; [3]): 1.8 ± 0.0 | MN (total number of micronuclei) (Huh6 cells; [3]): 61 ± 12.7* | MN frequencies with 10% serum compared with 4% serum (in words) (Huh6 cells; 24 hr treatment): stronger effects | Lowest effective concentration (LOEC) in micronucleus experiments (Huh6 cells; Huh6): 50.0 µM | Lowest effective concentration (LOEC) in micronucleus experiments (Human lymphocytes): 2.5 + S9 (Katic et al., 2010) μM
